Measurements from the supplement of paper PMC10307832.

Experiments:
Experiment in all cases: relative viability (nuclei count vs DMSO), 5 days (fraction); higher = more cells survive
[1] = compound: OCc1c[nH]c2ccccc12 [Indole-3-carbinol] + CS(=O)(=O)CCNCc1ccc(-c2ccc3ncnc(Nc4ccc(OCc5cccc(F)c5)c(Cl)c4)c3c2)o1 [Lapatinib] (partner 2 µM)
Method in brief: (§1)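 Cells from lung cancer lines were seeded into 1536-well plates and, one day later, dosed by pin tool. Treatments were either a single drug or a fixed dose of an anchor drug with five library-drug doses (not always all listed) in √10 steps. After 5 days, nuclei were stained in a one-step fixation (final 0.05% Triton X-100, 1% formaldehyde, 1 ug/ml Hoechst) and counted on 4× images, and relative viability is the treated-to-vehicle nuclei ratio, as the median of duplicate plates.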

[2] = compound: OCc1c[nH]c2ccccc12 [Indole-3-carbinol] + Cc1nc(Nc2ncc(C(=O)Nc3c(C)cccc3Cl)s2)cc(N2CCN(CCO)CC2)n1 [Dasatinib] (partner 0.075 µM)
Method in brief: as §1

[3] = compound: OCc1c[nH]c2ccccc12 [Indole-3-carbinol] + O=C(CCCCCCC(=O)Nc1ccccc1)NO [Vorinostat] (partner 1 µM)
Method in brief: as §1

[4] = compound: OCc1c[nH]c2ccccc12 [Indole-3-carbinol] + CC1(C)CCC(c2ccc(Cl)cc2)=C(CN2CCN(c3ccc(C(=O)NS(=O)(=O)c4ccc(N[C@H](CCN5CCOCC5)CSc5ccccc5)c(S(=O)(=O)C(F)(F)F)c4)cc3)CC2)C1 [Navitoclax] (partner 0.5 µM)
Method in brief: as §1

[5] = compound: OCc1c[nH]c2ccccc12 [Indole-3-carbinol]
Method in brief: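 Following overnight incubation at 37 °C, lung cancer cell lines in 1536-well plates were pinned with five library-drug doses (not always all listed) in √10 steps on vehicle-anchored plates. The cells then spent 5 days without medium change before a combined fix, permeabilisation and Hoechst stain, 4× imaging and MetaXpress nuclear counts. Viability is the treated-to-vehicle ratio of nuclei, taken as the median across plates. Only plates with control CV below 25% and at least one doubling passed.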

Row | Cell Line | relative viability ([1]; first compound 0.253 µM) | relative viability ([1]; first compound 0.8 µM) | relative viability ([1]; first compound 2.53 µM) | relative viability ([1]; first compound 8 µM) | relative viability ([2]; first compound 0.253 µM) | relative viability ([2]; first compound 0.8 µM) | relative viability ([2]; first compound 2.53 µM) | relative viability ([2]; first compound 8 µM) | relative viability ([3]; first compound 0.253 µM) | relative viability ([3]; first compound 0.8 µM) | relative viability ([3]; first compound 2.53 µM) | relative viability ([3]; first compound 8 µM) | relative viability ([4]; first compound 0.253 µM) | relative viability ([4]; first compound 0.8 µM) | relative viability ([4]; first compound 2.53 µM) | relative viability ([4]; first compound 8 µM) | relative viability ([5]; 0.253 µM) | relative viability ([5]; 0.8 µM) | relative viability ([5]; 2.53 µM) | relative viability ([5]; 8 µM)
1 | HCC-15 | 0.965 | 0.951 | 0.893 | 0.829 | 0.615 | 0.745 | 0.611 | 0.607 | 0.909 | 0.929 | 0.963 | 0.789 | 0.692 | 0.722 | 0.66 | 0.71 | 1.14 | 0.999 | 0.995 | 0.973
2 | NCI-H2126 | 0.761 | 0.741 | 0.78 | 0.748 | 0.618 | 0.683 | 0.592 | 0.632 | 0.734 | 0.834 | 0.718 | 0.752 | 0.824 | 0.872 | 0.865 | 0.83 | 0.986 | 1.01 | 0.997 | 0.957
3 | NCI-H2085 | 0.855 | 0.789 | 0.8 | 0.828 | 0.259 | 0.225 | 0.256 | 0.262 | 0.867 | 0.751 | 0.753 | 0.687 | 1.1 | 1.02 | 1.15 | 1.05 | 1.01 | 1.03 | 1.03 | 0.949
4 | BEN | 0.782 | 0.72 | 0.718 | 0.696 | 0.334 | 0.351 | 0.318 | 0.294 | 0.512 | 0.512 | 0.63 | 0.631 | 0.0839 | 0.0691 | 0.0796 | 0.048 | 0.941 | 0.998 | 1.03 | 0.91
5 | PC-14 | 0.288 | 0.321 | 0.342 | 0.266 | 0.265 | 0.287 | 0.27 | 0.26 | 0.665 | 0.594 | 0.724 | 0.649 | 1.01 | 1.1 | 1.07 | 0.961 | 1.04 | 0.948 | 1 | 0.953
6 | NCI-H2228 | 1.12 | 1.17 | 1.2 | 1.32 | 0.501 | 0.637 | 0.595 | 0.562 | 0.728 | 0.682 | 0.788 | 0.571 | 0.845 | 1.06 | 0.91 | 0.674 | 1.09 | 0.84 | 1.19 | 0.999
7 | COR-L23 | 0.921 | 0.918 | 0.998 | 0.887 | 0.505 | 0.571 | 0.586 | 0.542 | 0.445 | 0.492 | 0.459 | 0.371 | 1.17 | 1.07 | 0.976 | 0.797 | 1.06 | 1.09 | 1.08 | 0.934
8 | NCI-H1915 | 1.01 | 0.968 | 0.993 | 0.972 | 0.285 | 0.311 | 0.328 | 0.291 | 0.511 | 0.512 | 0.495 | 0.518 | 0.753 | 0.787 | 0.768 | 0.762 | 1.01 | 1.01 | 0.956 | 0.976
